Experimental data published in patent publication US10561619B2, “Pharmaceutical composition comprising dutasteride and propylene glycol monolaurate and preparation method of the same” (Yuyu Pharma, Inc., priority 2015, dated 2020).
Converted amounts (≈) assume the structure as drawn.

What was measured:
[1] = Evaluation of oil solubility of dutasteride; format: physicochemical; conditions: for solubility at 24 h: oil or lipid, thermodynamic from solid
Protocol: In order to measure the solubility of dutasteride in oil, the solubility of dutasteride in glycerol tricaprylate, glycerol tricaprylate/caprate, glycerol tricaprylate/caprate/linoleate, propylene glycol dicaprylocaprate, propylene glycol dicaprate, propylene glycol dicaprylate and propylene glycol monolaurate was measured. In a 10 mL vial, a magnetic bar was placed. After 3 mL of the oil was added thereto, approximately 100 mg of dutasteride was added thereto while stirring under a room temperature (25° C.) condition, and the resultant mixture was stirred at 500 rpm or higher. After stirring for 24 hours, 1 mL of the resultant mixture was taken and separated using a centrifuge, and only a supernatant was taken to quantify an amount of dutasteride dissolved in the oil using liquid chromatography.

[2] = Stability of dutasteride depending on oil type (degradation products); format: physicochemical
Protocol: In Test Example 2, in order to identify the stability of dutasteride in oil, the oil and dutasteride are mixed at a ratio of about 10 to 1, and then a stability test is carried out under an accelerated and stress condition, and a percentage of generated unknown degradation products with respect to the active ingredient is calculated to confirm whether degradation products are generated or not.
In order to identify the stability of dutasteride in mono- and di-glyceride of caprylic/capric acid used as an oil phase of AVODART®, an existing commercially-available formulation, the stability of dutasteride was compared under the stress condition (50° C., 95% RH) and the accelerated condition (40° C., 75% RH). In the comparison test, a sample prepared by dissolving 1.0 mg of dutasteride in 10.0 mg of propylene glycol monocaprylate and stored in a transparent vial and a sample prepared by dissolving 1.0 mg of dutasteride in 10.0 mg of mono- and di-glyceride of caprylic/capric acid and stored in a transparent vial were used.

solubility at 24 h ([1]; glycerol tricaprylate (oil), in glycerol tricaprylate, 25° C., stirring 24 hours): 0.84 mg/mL (≈ 1590 µM)
solubility at 24 h ([1]; glycerol tricaprylate/caprate/linoleate (oil), in glycerol tricaprylate/caprate/linoleate, 25° C., stirring 24 hours): 0.22 mg/mL (≈ 416 µM)
Solubility ([1]; in glycerol tricaprylate/caprate, 25° C., stirring 24 hours): 0.81 mg/mL (≈ 1530 µM)
solubility at 24 h ([1]; propylene glycol dicaprylocaprate (oil), in propylene glycol dicaprylroccaprate, 25° C., stirring 24 hours): 0.97 mg/mL (≈ 1840 µM)
higher solubility in propylene glycol monolaurate compared to other tested oils ([1]; propylene glycol monolaurate vs other tested oils): ≥ 10 times
percentage of degradation products with respect to dutasteride ([2]; in mono- and di-glyceride of caprylic/capric acid, stress condition (50° C., 95% RH), Week 1): None
percentage of degradation products with respect to dutasteride ([2]; in mono- and di-glyceride of caprylic/capric acid, stress condition (50° C., 95% RH), Week 2): None
percentage of degradation products with respect to dutasteride ([2]; in mono- and di-glyceride of caprylic/capric acid, stress condition (50° C., 95% RH), Week 3): None
percentage of degradation products with respect to dutasteride ([2]; in propylene glycol monolaurate, accelerated condition (40° C., 75% RH), Week 4): not generated and None
percentage of degradation products with respect to dutasteride ([2]; in propylene glycol monolaurate, stress condition (50° C., 95% RH), Week 1): None
percentage of degradation products with respect to dutasteride ([2]; in propylene glycol monolaurate, stress condition (50° C., 95% RH), Week 2): None
percentage of degradation products with respect to dutasteride ([2]; in propylene glycol monolaurate, stress condition (50° C., 95% RH), Week 3): None
SMILES: C[C@]12C=CC(=O)N[C@@H]1CC[C@@H]1[C@@H]2CC[C@]2(C)[C@@H](C(=O)Nc3cc(C(F)(F)F)ccc3C(F)(F)F)CC[C@@H]12 [dutasteride, 17β-N-(2,5-bis(trifluoromethyl))phenylcarbamoyl-4-aza-5α-androst-1-en-3-one]
